Laboratory results published in patent publication US9126957B2, “Selective glycosidase inhibitors and uses thereof” (MERCK SHARP & DOHME CORP., priority 2011, dated 2015).

Biological target: human O-GlcNAcase (Homo sapiens (Human), UniProt O60502)
Experiment: Fluorescence-based hOGA assay for determination of KI values for inhibition of O-GlcNAcase activity
Format: biochemical
Settings: purified human O-GlcNAcase, 4-Methylumbelliferyl N-acetyl-β-D-glucosaminide substrate, pH 7.0, Cheng-Prusoff
Protocol: Assay for determination of KI values for inhibition of O-GlcNAcase activity Experimental procedure for kinetic analyses
Enzymatic reactions are carried out in a reaction containing 50 mM NaH2PO4, 100 mM NaCl and 0.1% BSA (pH 7.0) using 2 mM 4-Methylumbelliferyl N-acetyl-β-D-glucosaminide dihydrate (Sigma M2133) dissolved in ddH2O, as a substrate. The amount of purified human O-GlcNAcase enzyme used in the reaction is 0.7 nM. Test compound of varying concentrations is added to the enzyme prior to initiation of the reaction. The reaction is performed at room temperature in a 96-well plate and is initiated with the addition of substrate. The production of fluorescent product is measured every 60 sec for 45 min with a Tecan Infinite M200 plate-reader with excitation at 355 nm and emission detected at […], with 4-Methylumbelliferone (Sigma M1381) used to produce a standard curve. The slope of product production is determined for each concentration of compound tested and plotted, using standard curve fitting algorithms for sigmoidal dose response curves. The values for a four parameter logistic curve fit of the data are determined.
KI values are determined using the Cheng-Prusoff equation; the Km of O-GlcNacase for substrate is 0.2 mM.

Sequence of human O-GlcNAcase (O60502 whole entry): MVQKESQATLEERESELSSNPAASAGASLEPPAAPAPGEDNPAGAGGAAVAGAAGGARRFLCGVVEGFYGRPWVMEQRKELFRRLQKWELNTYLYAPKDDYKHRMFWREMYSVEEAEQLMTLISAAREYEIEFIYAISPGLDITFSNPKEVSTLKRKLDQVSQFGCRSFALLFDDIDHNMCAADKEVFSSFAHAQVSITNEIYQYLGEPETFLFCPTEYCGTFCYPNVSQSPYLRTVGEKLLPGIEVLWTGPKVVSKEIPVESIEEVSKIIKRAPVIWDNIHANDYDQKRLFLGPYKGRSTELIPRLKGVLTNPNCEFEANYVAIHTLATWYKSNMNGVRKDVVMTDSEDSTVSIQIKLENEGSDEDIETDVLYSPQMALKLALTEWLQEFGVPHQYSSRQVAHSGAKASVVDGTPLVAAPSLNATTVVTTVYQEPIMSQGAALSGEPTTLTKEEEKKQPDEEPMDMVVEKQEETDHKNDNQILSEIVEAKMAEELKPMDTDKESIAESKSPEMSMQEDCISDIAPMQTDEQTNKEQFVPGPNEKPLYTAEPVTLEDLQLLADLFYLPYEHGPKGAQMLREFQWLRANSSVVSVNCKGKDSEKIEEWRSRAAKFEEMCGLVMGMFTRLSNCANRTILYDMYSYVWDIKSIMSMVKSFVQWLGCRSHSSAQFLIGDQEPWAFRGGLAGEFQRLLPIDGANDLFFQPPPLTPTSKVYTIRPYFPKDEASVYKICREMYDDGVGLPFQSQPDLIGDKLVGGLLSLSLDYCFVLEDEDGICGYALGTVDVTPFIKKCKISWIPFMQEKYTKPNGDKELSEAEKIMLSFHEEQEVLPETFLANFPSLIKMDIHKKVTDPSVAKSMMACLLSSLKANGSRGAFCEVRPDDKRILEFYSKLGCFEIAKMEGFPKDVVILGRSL

Row | Compound | Ki [nM]
1 | C[C@@H](O)[C@H]1C[C@@H]2OC(N(C)C)=N[C@@H]2[C@@H](O)[C@@H]1O [Example 1A, (3aR,4R,5R,6R,7aS)-2-(Dimethylamino)-6-((R)-1-hydroxyethyl)-3a,4,5,6,7,7a-hexahydrobenzo[d]oxazole-4,5-diol] | 4.5
2 | C[C@H](O)[C@H]1C[C@@H]2OC(N(C)C)=N[C@@H]2[C@@H](O)[C@@H]1O [Example 2, (3aR,4R,5R,6R,7aS)-2-(Dimethylamino)-6-((S)-1-hydroxyethyl)-3a,4,5,6,7,7a-hexahydro-benzo[d]oxazole-4,5-diol] | 0.26
3 | CCCNC1=N[C@@H]2[C@@H](O)[C@H](O)[C@@H]([C@H](C)O)C[C@@H]2O1 [Example 5, (3aR,4R,5R,6R,7aS)-6-((S)-1-hydroxyethyl)-2-(propylamino)-3a,4,5,6,7,7a-hexahydrobenzo[d] oxazole-4,5-diol] | 7.1
4 | CNC1=N[C@@H]2[C@@H](O)[C@H](O)[C@@H]([C@H](C)O)C[C@@H]2O1 [Example 6, (3aR,4R,5R,6R,7aS)-6-((S)-1-hydroxyethyl)-2-(methylamino)-3a,4,5,6,7,7a-hexahydrobenzo[d] oxazole-4,5-diol] | 0.26
5 | CCCNC1=N[C@@H]2[C@@H](O)[C@H](O)[C@@H](C(C)(C)O)C[C@@H]2O1 [Example 8, (3aR,4R,5R, 6S,7aS)-6-(2-hydroxy-propan-2-yl)-2-(propylamino)-3a,4,5,6,7,7a-hexahydro-benzo[d] oxazole-4,5-diol] | 1670
6 | C[C@H](O)[C@H]1C[C@@H]2SC(N(C)C)=N[C@@H]2[C@@H](O)[C@@H]1O [Example 10, (3aR,4R,5R,6R,7aS)-2-(dimethylamino)-6-((S)-1-hydroxyethyl)-3a,4,5,6,7,7a-hexahydrobenzo[d]thiazole-4,5-diol] | 0.14

More lines, in order of falling Ki, values ahead:

Row | Ki [nM] | Compound
7 | 437 | C[C@@H](O)[C@@H]1C[C@H]2OC(N(C)C)=N[C@H]2[C@H](O)[C@H]1O (single isomer, unassigned) [Example 4]
8 | 93 | CCNC1=N[C@@H]2[C@@H](O)[C@H](O)[C@@H](C(C)(C)O)C[C@@H]2O1 [Example 7, (3aR,4R,5R, 6S,7aS)-2-(ethylamino)-6-(2-hydroxy-propan-2-yl)-3a,4,5,6,7,7a-hexahydro-benzo[d] oxazole-4,5-diol]
9 | 54 | CN(C)C1=N[C@@H]2[C@@H](O)[C@H](O)[C@@H](C(C)(C)O)C[C@@H]2O1 [Example 3, (3aR,4R,5R,6S,7aS)-2-(Dimethylamino)-6-(2-hydroxypropan-2-yl)-3a,4,5,6,7,7a-hexahydro-benzo[d]oxazole-4,5-diol]
10 | 14 | C[C@@H](O)[C@H]1C[C@@H]2SC(N(C)C)=N[C@@H]2[C@@H](O)[C@@H]1O [Example 9]
